For data set [1], the system named is L6-GLUT4myc cells. The data set can be described thus: Cell viability / cell death seen in the GLUT4 translocation experiment. Type of data set: cell-based, rat. As to conditions: synthetic peptide 200 μM, 3 hours. As to the method: (§1) L6-GLUT4myc cells were serum-starved for three hours prior to incubation with 100 nM of insulin for 30 mins, or 200, 20, 2.0 and 0.2 μM of SP, and 2, 1, 0.5 and 0.25 mg/ml of peptide composition for 3 hours respectively. A 3 hour incubation period was selected based on previous findings identifying that incubation with branch chain amino acid containing di-peptides for 3 hours increases glucose uptake in L6 myotubes 1. Treatments were staggered in order to determine GLUT4myc translocation at the same time point.

The test system of data set [2] is GLUT4. The data set can be described thus: Measurement of GLUT4myc translocation in L6 myotubes (antibody-coupled colorimetric assay). The data set is classed as cell-based, rat. As to conditions: L6-GLUT4myc cells.
Source text: We determined the effect of six synthetic peptides (SP1-6) and four peptide compositions on in vitro GLUT4 translocation using the L6 rat skeletal muscle cell line. A clone of the L6 cell line containing overexpression of GLUT4 tagged with a c-myc epitope (courtesy of Prof. Amira Klip, Hospital for Sick Children, Toronto) was used to investigate the efficacy of each synthetic peptide and peptide composition for effects on GLUT4 translocation in a dose-response design.
L6-GLUT4myc cells were grown in 10% FBS and 2 μg/ml blasticidin. Cells were grown for 48-72 hours before being seeded in 24-well plates at 15,000 cells per well in 2% FBS and allowed to differentiate for 6 to 8 days prior to experimentation.
as §1
The quantity of myc-tagged GLUT4 at the cell surface was measured by antibody-coupled colorimetric assay. Briefly, after incubation with either insulin for 30 mins or synthetic peptide or peptide composition for 3 hours respectively, L6-GLUT4myc cells were fixed via incubation with 3% paraformaldehyde (PFA). A 0.1 M glycine solution was then added to quench PFA and cells were blocked with 5% goat serum. The myotube monolayer was exposed to anti-myc antibody and then incubated with peroxidase conjugated donkey anti-mouse IgG. 1 mL of o-phenylenediamine dihydrochloride (OPD) reagent was added to each well and this reaction was stopped by adding 250 μl/well of 3 M HCL. To determine GLUT4 translocation to cell surface, a measured aliquot of each condition was determined spectrophotometrically on a plate reader using absorbance at 492 nm. […]

No end group written: not given here.

With DTFYNAAWDPSNR [SP1, DTFYNAAWDPSNR], the cell viability result in data set [1] is reported as “poor cell viability”. Turning to VLDLAIPVNRPGQL [SP2], the “stimulatory effect on skeletal muscle GLUT4 translocation (conclusion of the experiment)” value in data set [2] (dose-response design) was “displayed a trend for stimulatory effect”. Moreover, the GLUT4 translocation result in data set [2] (synthetic peptide 0.2-2 μM, 3 hours) was “trend for SP2 to increase GLUT4 translocation”. On to insulin [reference compound], for which the “average increase in cell surface GLUT4 translocation compared to untreated control” value in data set [2] (100 nM insulin, 30 mins) is 1.72 fold.

The values above are taken from US12491230B2, “Peptides for use in promoting transport of glucose” (NURITAS LIMITED, priority 2015, dated 2025).
